Consider four compounds from patent US10787436B2, “Inhibitors of cyclin-dependent kinase 7 (CDK7)” (Dana-Farber Cancer Institute, Inc., priority 2012, dated 2020).

Assay [1] has as its target T1, CDK7 (Homo sapiens (Human), UniProt P50613). Kind of assay: In vitro inhibitory activity against CDK7 (Table 1). The format is biochemical. On the procedure:
In vitro kinase assays with immunoprecipitated proteins (or recombinant CAK complexes) were performed as follows. Kinase reactions were performed in 25 μL of final volume of reaction buffer (50 mM Hepes, pH 7.5, 150 mM NaCl, 10 mM MgCl2, 5% glycerol, 25 μM ATP, and 10 μCi of [γ-32P]ATP). Each reaction contained 1 μg of RNAP II. Incubation was at 30° C. for 30-45 min. Reactions were terminated by addition of 5 μL of 5×SDS-PAGE sample buffer and incubated at 95° C. for 5 min. Reactions were analyzed by SDS-PAGE, and the dried gel was exposed to film or PhosphorImager plate.
Target sequence in this assay (P50613 whole entry, looked up): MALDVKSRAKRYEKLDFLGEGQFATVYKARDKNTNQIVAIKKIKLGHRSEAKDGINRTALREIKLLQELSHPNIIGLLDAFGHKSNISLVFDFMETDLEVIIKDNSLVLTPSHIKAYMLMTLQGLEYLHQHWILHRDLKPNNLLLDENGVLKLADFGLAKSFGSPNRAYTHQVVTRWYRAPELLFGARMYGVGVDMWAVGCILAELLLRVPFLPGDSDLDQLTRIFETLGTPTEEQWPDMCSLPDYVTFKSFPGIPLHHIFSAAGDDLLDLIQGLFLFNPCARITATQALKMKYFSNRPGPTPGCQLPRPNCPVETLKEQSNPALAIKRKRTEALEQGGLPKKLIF
Target sequence in this assay (P51946 whole entry partner, looked up): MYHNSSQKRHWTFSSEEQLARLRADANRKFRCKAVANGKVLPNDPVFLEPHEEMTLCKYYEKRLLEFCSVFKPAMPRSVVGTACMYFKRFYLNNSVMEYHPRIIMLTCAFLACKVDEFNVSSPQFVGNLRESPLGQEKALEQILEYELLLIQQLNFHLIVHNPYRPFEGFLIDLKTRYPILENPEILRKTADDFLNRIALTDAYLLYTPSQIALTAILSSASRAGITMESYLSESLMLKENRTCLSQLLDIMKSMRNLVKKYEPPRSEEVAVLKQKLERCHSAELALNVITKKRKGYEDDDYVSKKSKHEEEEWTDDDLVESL
Target sequence in this assay (P51948 whole entry partner, looked up): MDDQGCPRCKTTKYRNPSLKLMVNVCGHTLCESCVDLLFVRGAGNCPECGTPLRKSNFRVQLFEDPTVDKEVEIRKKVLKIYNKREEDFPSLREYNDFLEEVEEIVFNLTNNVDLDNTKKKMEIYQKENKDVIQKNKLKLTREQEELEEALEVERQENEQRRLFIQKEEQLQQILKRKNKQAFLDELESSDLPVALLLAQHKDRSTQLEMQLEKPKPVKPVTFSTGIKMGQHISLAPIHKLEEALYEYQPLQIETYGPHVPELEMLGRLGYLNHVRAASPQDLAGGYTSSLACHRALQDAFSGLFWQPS

The target of another assay is IRAK1 (Homo sapiens (Human), UniProt P51617). Description: Life Technologies Adapta kinase assay, IRAK1. Type of assay: biochemical. The following applies: superscript b (footnote not given; tested at 100 nM and 1 μM).
In the next assay the target is MLK3 (Homo sapiens (Human), UniProt Q16584). Kind of assay: Life Technologies LanthaScreen Eu kinase assay, MLK3. Particulars: for IC50: read-out: Calculated IC50, MLK3. Type of assay: binding.
The test system of a further assay is HL60. Description: Proliferation assay, CellTiter-Glo, 72 hour. The format is cell-based. The following applies: read-out: Inhibition of proliferation, HL60. Background: ATP-based viability assays read luminescence as a measure of living cells.
The test system of another assay is THP-1. Description: Proliferation assay, CellTiter-Glo, 72 hour. The format is cell-based. Particulars: read-out: Inhibition of proliferation, THP-1.
Another assay has as its system MV4-11. Kind of assay: Proliferation assay, CellTiter-Glo, 72 hour. Type of assay: cell-based. The following applies: read-out: Inhibition of proliferation, MV4-11.
The test system of a further assay is RS4-11. Kind of assay: Proliferation assay, CellTiter-Glo, 72 hour. The format is cell-based. Particulars: read-out: Inhibition of proliferation, RS4-11.
The next assay has as its system hTERT-HME1. Description: Proliferation assay, CellTiter-Glo, 72 hour. Type of assay: cell-based. The following applies: read-out: Inhibition of proliferation, hTERT-HME1.
Another assay deals with MDA-MB231. Kind of assay: Proliferation assay, CellTiter-Glo, 72 hour. The format is cell-based. The following applies: read-out: Inhibition of proliferation, MDA-MB231.
In a further assay the test system is MCF7. Kind of assay: Proliferation assay, CellTiter-Glo, 72 hour. The following applies: read-out: Inhibition of proliferation, MCF7. The format is cell-based.
The next assay relates to MCF10A. Kind of assay: Proliferation assay, CellTiter-Glo, 72 hour. The format is cell-based. Particulars: non-tumorigenic breast epithelial cell line, read-out: Inhibition of proliferation, MCF10A.
The next assay concerns T47D. Description: Proliferation assay, CellTiter-Glo, 72 hour. The format is cell-based. The following applies: breast cancer cell line, read-out: Inhibition of proliferation, T47D.
A further assay has as its system SKBR3. Description: Proliferation assay, CellTiter-Glo, 72 hour. Type of assay: cell-based. The following applies: read-out: Inhibition of proliferation, SKBR3.
In another assay the test system is A673. Kind of assay: Proliferation assay, CellTiter-Glo, 72 hour. Type of assay: cell-based. The following applies: read-out: Inhibition of proliferation, A673.
The test system of the next assay is Hs822T. Kind of assay: Proliferation assay, CellTiter-Glo, 72 hour. Type of assay: cell-based. The following applies: Ewing's sarcoma cell line, read-out: Inhibition of proliferation, Hs822T.
The next assay deals with Hs863T. Description: Proliferation assay, CellTiter-Glo, 72 hour. The format is cell-based. Particulars: Ewing's sarcoma cell line, read-out: Inhibition of proliferation, Hs863T.
The test system of the next assay is RD-ES. Kind of assay: Proliferation assay, CellTiter-Glo, 72 hour. The following applies: Ewing's sarcoma cell line, read-out: Inhibition of proliferation, RD-ES. Type of assay: cell-based.
Another assay concerns SK-ES. Description: Proliferation assay, CellTiter-Glo, 72 hour. Particulars: Ewing's sarcoma cell line, read-out: Inhibition of proliferation, SK-ES. Type of assay: cell-based.
A further assay has as its system SAOS. Kind of assay: Proliferation assay, CellTiter-Glo, 72 hour. The format is cell-based. The following applies: osteosarcoma cell line, read-out: Inhibition of proliferation, SAOS.
Another assay has as its system MNNG-HOS Cl#5. Kind of assay: Proliferation assay, CellTiter-Glo, 72 hour. The format is cell-based. Particulars: osteosarcoma cell line, read-out: Inhibition of proliferation, MNNG-HOS Cl#5.
The test system of a further assay is 143B. Description: Proliferation assay, CellTiter-Glo, 72 hour. The format is cell-based. The following applies: osteosarcoma cell line, read-out: Inhibition of proliferation, 143B.
Assay [2] relates to patient-derived chronic lymphocytic leukemia (CLL) isolates. Kind of assay: Cell death of patient-derived CLL isolates, Annexin V staining, 24 hour. Type of assay: cell-based, human. The following applies: Homo sapiens, read-out: Pro-death signaling, average EC50 values. The protocol: Clinical isolates of CLL were cultured with compounds of Formula (I) or flavopiridol and assessed for cell death after a 24 hour time course by Annexin V staining. […] Anti-proliferative effect was measured using cell titer glo analysis.
PBMCs freshly isolated from peripheral blood are seeded in 24 well plates at a volume of 0.5 ml and a concentration of 2×10^6 cells/ml. Compounds and controls are added to respective wells in a total volume of 2.5 μl. Plates are mixed gently and incubated approximately 24 hours at 37° C., 5% CO2. Apoptosis was measured in all cells from each well using the Annexin V: FITC Apoptosis Detection Kit I (BD Biosciences). Normalized % death was calculated as follows: [(% Dead Drug−% Dead DMSO)/(100%−% Dead DMSO)]×100

The subject of a further assay is RNAP II occupancy. Description: RNAP II ChIP-seq in Jurkat cells. Type of assay: cell-based, human. The following applies: 250 nM for 6 hours. The protocol:
After the indicated treatment time, cells were crosslinked for 10 minutes at room temperature by the addition of one-tenth of the volume of 11% formaldehyde solution (11% formaldehyde, 50 mM Hepes (pH 7.3), 100 mM NaCl, 1 mM EDTA (pH 8.0), 0.5 mM EGTA (pH 8.0)) to the growth media followed by two washes with PBS. Following the final PBS wash, supernatant was aspirated, and the cell pellet was flash frozen in liquid nitrogen. Frozen crosslinked cells were stored at −80° C.
50 μl of Dynal magnetic beads (Sigma) were blocked with 0.5% BSA (w/v) in PBS. Magnetic beads were bound with 5 μg of the indicated antibody. Antibodies used are as follows: Total RNAP II (Rpb1 N-terminus): Santa Cruz sc-899; CDK7: Bethyl A300-405A. Crosslinked cells were lysed with lysis buffer 1 (50 mM Hepes (pH 7.3), 140 mM NaCl, 1 mM EDTA, 10% glycerol, 0.5% NP-40, and 0.25% Triton X-100) and washed with lysis buffer 2 (10 mM Tris-HCl (pH 8.0), 200 mM NaCl, 1 mM EDTA (pH 8.0) and 0.5 mM EGTA (pH 8.0)). […]
Illumina sequencing libraries were generated, and data were processed according to Lin et al., Cell (2012) 151:56-67. […] These criteria preserved only reads that mapped uniquely to the genome with 1 or fewer mismatches. […]

In assay [3] the target is T1, CDK7. Kind of assay: Compound I-49 pull down from Loucy cellular lysates. Type of assay: binding. Particulars: 1 μM, 4° C., 12 hours. On the procedure:
Precipitated proteins were washed and probed for CDK7.
(§1) Following the treatment, the cells were washed 2-fold with cold PBS and then lysed in the following lysis buffer: 50 mM TrisHCl pH 8.0, 150 mM NaCl, 1% NP-40, 5 mM EDTA, 1 mM DTT, and protease/phosphatase cocktails. Following clearance, the lysates were treated with compound I-49 for pulldown (or CDK7 antibody for IP) overnight at 4° C. The lysates were then incubated with streptavidin agarose for pulldown (or Protein G Agarose for IP) for an additional 2-3 hours at 4° C. Agarose beads were washed 5 times with a lysis buffer and then boiled in 2X SDS for 10 minutes at 95° C.
Target sequence in this assay (P50613 whole entry): as the sequence (P50613 whole entry, looked up) above

For assay [4], the system named is CDK1, CDK2, CDK4, and CDK6. Described as above. The format is binding. On the procedure: (§2) However, cyclin K, which is known to bind to CDK12/13, did interact with I-49. […] Lysates were then probed with I-49. Precipitated proteins were washed and probed with antibodies as shown.
as §1

The next assay concerns cyclin K. Described as above. Type of assay: binding. On the procedure: as §2, §1
Another assay has as its system Jurkat. Kind of assay: Jurkat (proliferation, CellTiter-Glo). Particulars: Homo sapiens, Jurkat; read-out: Calculated IC50, Jurkat. Type of assay: cell-based.
In another assay the target is CDK5/p25 (Homo sapiens (Human), UniProt Q00535). Kind of assay: Life Technologies Z'-Lyte kinase assay, CDK5/p25. Type of assay: biochemical. Particulars: read-out: Calculated IC50, CDK5/p25.

Each structure is given as a SMILES string. Where two headings read alike, the source gives them in different places.

A word on the EC50: it is the concentration that produces a half-maximal response.

MLK3, sequence (Q16584 whole entry): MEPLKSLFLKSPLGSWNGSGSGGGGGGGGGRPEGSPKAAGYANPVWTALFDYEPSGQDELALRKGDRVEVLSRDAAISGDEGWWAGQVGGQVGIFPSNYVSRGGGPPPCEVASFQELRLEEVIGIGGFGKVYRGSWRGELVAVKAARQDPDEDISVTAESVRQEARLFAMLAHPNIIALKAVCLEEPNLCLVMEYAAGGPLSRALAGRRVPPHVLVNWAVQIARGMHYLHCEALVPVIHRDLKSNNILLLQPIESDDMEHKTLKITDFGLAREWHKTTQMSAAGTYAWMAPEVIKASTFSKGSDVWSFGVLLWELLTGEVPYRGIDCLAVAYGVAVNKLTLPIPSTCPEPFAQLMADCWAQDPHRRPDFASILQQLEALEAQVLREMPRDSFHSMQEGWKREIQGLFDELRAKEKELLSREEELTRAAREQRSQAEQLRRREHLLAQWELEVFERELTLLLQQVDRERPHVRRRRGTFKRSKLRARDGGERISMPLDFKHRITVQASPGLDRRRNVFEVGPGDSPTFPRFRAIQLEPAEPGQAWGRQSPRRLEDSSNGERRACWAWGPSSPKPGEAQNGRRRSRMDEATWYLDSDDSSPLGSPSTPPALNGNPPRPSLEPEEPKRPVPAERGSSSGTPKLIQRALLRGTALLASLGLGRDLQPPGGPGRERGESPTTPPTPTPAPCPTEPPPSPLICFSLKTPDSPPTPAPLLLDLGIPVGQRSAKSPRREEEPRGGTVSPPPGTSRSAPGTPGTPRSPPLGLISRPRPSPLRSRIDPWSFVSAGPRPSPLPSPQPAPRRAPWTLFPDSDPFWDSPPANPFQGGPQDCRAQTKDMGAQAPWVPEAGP
IRAK1, sequence (P51617 whole entry): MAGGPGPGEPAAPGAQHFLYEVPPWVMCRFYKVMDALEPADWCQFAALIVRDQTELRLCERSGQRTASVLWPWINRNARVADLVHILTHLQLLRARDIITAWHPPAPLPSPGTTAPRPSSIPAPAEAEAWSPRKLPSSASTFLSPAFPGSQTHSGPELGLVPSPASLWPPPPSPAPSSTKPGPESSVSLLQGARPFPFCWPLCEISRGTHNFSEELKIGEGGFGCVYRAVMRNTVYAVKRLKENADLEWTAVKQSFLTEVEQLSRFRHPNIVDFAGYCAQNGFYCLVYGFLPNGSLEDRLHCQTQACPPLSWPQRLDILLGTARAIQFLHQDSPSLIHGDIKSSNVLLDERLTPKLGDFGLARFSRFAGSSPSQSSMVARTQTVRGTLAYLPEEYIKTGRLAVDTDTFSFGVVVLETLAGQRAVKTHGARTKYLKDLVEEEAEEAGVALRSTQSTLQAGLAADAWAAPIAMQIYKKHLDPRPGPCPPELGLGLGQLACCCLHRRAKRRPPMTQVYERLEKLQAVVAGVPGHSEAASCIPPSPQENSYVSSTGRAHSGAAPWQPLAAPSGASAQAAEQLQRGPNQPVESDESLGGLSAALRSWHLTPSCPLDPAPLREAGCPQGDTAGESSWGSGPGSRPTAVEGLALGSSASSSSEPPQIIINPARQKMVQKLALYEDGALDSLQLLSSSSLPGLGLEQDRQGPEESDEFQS
CDK5/p25, sequence (Q00535 whole entry): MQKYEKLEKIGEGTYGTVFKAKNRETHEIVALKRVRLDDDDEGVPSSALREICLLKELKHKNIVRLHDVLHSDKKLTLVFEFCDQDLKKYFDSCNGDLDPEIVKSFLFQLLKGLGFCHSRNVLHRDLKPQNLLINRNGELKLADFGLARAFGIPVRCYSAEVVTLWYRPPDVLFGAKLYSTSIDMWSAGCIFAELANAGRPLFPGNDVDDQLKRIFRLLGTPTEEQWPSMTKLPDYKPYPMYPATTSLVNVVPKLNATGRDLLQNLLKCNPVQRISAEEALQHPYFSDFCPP
CDK5/p25, sequence (Q15078 99-307 partner): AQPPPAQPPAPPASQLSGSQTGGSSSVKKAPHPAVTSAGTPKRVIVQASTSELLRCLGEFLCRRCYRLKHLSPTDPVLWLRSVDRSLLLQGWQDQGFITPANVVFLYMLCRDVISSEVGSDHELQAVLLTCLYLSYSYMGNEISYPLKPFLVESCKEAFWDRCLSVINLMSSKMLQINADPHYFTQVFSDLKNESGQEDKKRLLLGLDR

On to `Cc1ccc(Nc2ncc(C)c(-c3c[nH]c4ccccc34)n2)cc1NC(=O)c1ccc(NC(=O)/C=C/CN(C)C)cc1` [Formula I-20], for which the IC50 at CDK7 [1] was 0.0209 µM; on MLK3, less than 0.1 µM; in the assay with HL60 (blood cancer cell line), less than 0.5 µM; in the assay with THP-1 (blood cancer cell line), less than 0.5 µM; in the assay with MV4-11 (blood cancer cell line) it was less than 0.5 µM; in the assay with RS4-11 (blood cancer cell line), less than 0.5 µM. Besides, the IC50 with hTERT-HME1 (immortalized normal mammary epithelial cell line) is less than 0.5 µM; in the assay with MDA-MB231 (breast cancer cell line) it was less than 0.5 µM; with MCF7 (breast cancer cell line), less than 0.5 µM; with MCF10A, less than 0.5 µM; with T47D, 0.5 to 5 µM; in the assay on SKBR3 (breast cancer cell line), 0.5 to 5 µM. Moreover, the IC50 in the assay with A673 (Ewing's sarcoma cell line), in the assay on Hs822T, with Hs863T, with RD-ES, in the assay on SK-ES and in the assay with SAOS was less than 0.5 µM throughout. Further, the results for the IC50 in the assay on MNNG-HOS Cl#5 and with 143B were 0.5 to 5 µM and more than 5 µM, respectively. Also, at IRAK1, the “Percent inhibition, IRAK1^b” value is on record as “C (less than 50% inhibition)”. Besides, at MLK3 (superscript b (footnote not given; tested at 100 nM and 1 μM)), the “Percent inhibition, MLK3^b” value was “C (less than 50% inhibition)”.
`CN1CC[C@H](c2c(O)cc(O)c3c(=O)cc(-c4ccccc4Cl)oc23)[C@H](O)C1` [Flavopiridol, flavopiridol, reference compound]: the IC50 was less than 0.5 µM with HL60 (Homo sapiens, HL-60, blood cancer cell line); less than 0.5 µM with THP-1 (Homo sapiens, THP-1, blood cancer cell line); less than 0.5 µM in the assay with MV4-11 (Homo sapiens, MV4-11, blood cancer cell line); less than 0.5 µM with RS4-11 (Homo sapiens, RS4-11, blood cancer cell line); less than 0.5 µM in the assay on hTERT-HME1 (hTERT-HME1, immortalized normal mammary epithelial cell line); less than 0.5 µM in the assay with MDA-MB231 (Homo sapiens, MDA-MB-231, breast cancer cell line). The IC50 is 0.5 to 5 µM in the assay with MCF7 (Homo sapiens, MCF7, breast cancer cell line); less than 0.5 µM in the assay with MCF10A (Homo sapiens, MCF-10A); more than 5 µM in the assay with T47D (Homo sapiens, T47D); less than 0.5 µM in the assay on SKBR3 (Homo sapiens, SK-BR-3, breast cancer cell line); less than 0.5 µM in the assay on A673 (Homo sapiens, A673, Ewing's sarcoma cell line); more than 5 µM in the assay with Hs822T. The IC50 in the assay on Hs863T is more than 5 µM; in the assay with RD-ES (RD-ES), less than 0.5 µM; in the assay on SK-ES it was less than 0.5 µM; in the assay with SAOS, less than 0.5 µM; with MNNG-HOS Cl#5 it was 0.5 to 5 µM; in the assay with 143B (Homo sapiens, 143B) it was 0.5 to 5 µM. Moreover, in assay [2], the EC50 was less than 0.2 µM. In addition, in the assay with RNAP II occupancy, the “RNAP II occupancy at the promoter proximal pause site” value is on record as “unaffected”.
With `CN(C/C=C/C(=O)Nc1ccc(C(=O)Nc2cccc(Nc3ncc(Cl)c(-c4c[nH]c5ccccc45)n3)c2)cc1)CCCNC(=O)NCCOCCOCCOCCNC(=O)CCCCC1SCC2NC(=O)NC21` (stereo not drawn) [Formula I-49], the “Pull down of CDK7 from cellular lysates” value at CDK7 [3] is “pulls down CDK7”. Moreover, the “Interaction with CDK1, CDK2, CDK4, and CDK6” value in [4] was “do not interact”. Also, in the assay on cyclin K, the “Interaction with cyclin K” value is “did interact”.
Consider `CN(C)C/C=C/C(=O)Nc1ccc(C(=O)Nc2cccc(Nc3ncc(C#N)c(-c4c[nH]c5ccccc45)n3)c2)cc1` [Formula I-53, (E)-N-(3-(5-cyano-4-(1H-indol-3-yl)pyrimidin-2-ylamino)phenyl)-4-(4-(dimethylamino)but-2-enamido)benzamide], for which the values for the IC50 in the assay with Jurkat, on CDK5/p25 and on MLK3 were less than 0.1 µM, 0.1 to 1 µM and less than 0.1 µM, respectively.
